Results on 20 molecules are retold here after PubChem BioAssay (NCI).

The structures appear in SMILES notation.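 1) Cells in 96-well plates. 2) Compound, 48 h, 5 concentrations. 3) Linear interpolation between surrounding doses. 4) Unreached endpoint = highest concentration. TGI: total growth inhibition.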

Among the test systems are EKVX NSCLC; HOP-62 NSCLC; MDA-N; NCI-H226 lung; RPMI-8226 leukemia; SF-268 CNS; SF-295 CNS; SNB-75 CNS; TK-10 renal; UACC-62 melanoma.
Assay in all cases: NCI anticancer screen, dose series, 48 h

As for `O=C1CSC2=NC3=C(CSC/C3=C\c3ccccc3)C(c3ccccc3)N12` (stereo not drawn), the TGI in the test on EKVX NSCLC, in the test on HOP-62 NSCLC, in the test with MDA-N, in the test with NCI-H226 lung, with RPMI-8226 leukemia and with SF-268 CNS was > 100 µM in each case. Besides, the TGI in the test with SF-295 CNS, in the test on SNB-75 CNS, in the test with TK-10 renal and in the test with UACC-62 melanoma was > 100 µM in each case.
Regarding `COc1c2c(cc3c1C1(O)Cc4ccc5c(c4C[N+]1(C)CC3)OCO5)OCO2` (stereo not drawn), the TGI with EKVX NSCLC, with HOP-62 NSCLC, with MDA-N, in the test on NCI-H226 lung, in the test on RPMI-8226 leukemia and in the test with SF-268 CNS was > 100 µM each time. The TGI in the test on SF-295 CNS, with SNB-75 CNS, in the test on TK-10 renal and with UACC-62 melanoma was > 100 µM in each case.
For the molecule `COP(=O)(OC)/C(=C/c1cn(C(c2ccccc2)(c2ccccc2)c2ccccc2)cn1)NC=O`, the TGI with EKVX NSCLC was 56.9 µM; in the test with HOP-62 NSCLC, 35.9 µM; in the test with MDA-N, 51.4 µM; in the test on NCI-H226 lung, 98.9 µM; in the test on RPMI-8226 leukemia it was > 100 µM; in the test on SF-268 CNS, 33.1 µM. Moreover, the TGI in the test with SF-295 CNS was determined as 30.5 µM; with SNB-75 CNS, 23.3 µM; with TK-10 renal it was 46.3 µM; in the test with UACC-62 melanoma, 41.3 µM.
As for `O=S(=O)(/N=C(\NO)Nc1ccc(Cl)cc1)c1ccccc1`, the TGI was 26.1 µM in the test on EKVX NSCLC; > 100 µM in the test with HOP-62 NSCLC; 27.7 µM in the test with MDA-N; > 100 µM in the test on NCI-H226 lung; 56.8 µM in the test with RPMI-8226 leukemia; > 70.3 µM with SF-268 CNS. Moreover, the TGI in the test with SF-295 CNS is > 100 µM; in the test with SNB-75 CNS it was 19.4 µM; in the test on TK-10 renal, > 61.6 µM; in the test with UACC-62 melanoma, 36.9 µM.
As to `C=CCc1cc(C(Cc2ccccc2)NC(C)C)cc(OCc2ccccc2)c1OCc1ccccc1` (stereo not drawn), the TGI with EKVX NSCLC worked out at 30 µM; with HOP-62 NSCLC, 30.3 µM; in the test with MDA-N it was 25.8 µM; in the test with NCI-H226 lung, 36.2 µM; with RPMI-8226 leukemia, 30.9 µM; in the test with SF-268 CNS, 30 µM. Besides, the TGI with SF-295 CNS is 31.6 µM; in the test with SNB-75 CNS, 26.2 µM; in the test with TK-10 renal, 30.8 µM; with UACC-62 melanoma, 28.4 µM.
With `C[N+]1(CCC[N+]2(C)CC3C4C=CC(CC4)C3C2)CCOCC1` (stereo not drawn), the TGI in the test with EKVX NSCLC, in the test on HOP-62 NSCLC, in the test with MDA-N, in the test with NCI-H226 lung, in the test on RPMI-8226 leukemia and with SF-268 CNS was > 100 µM each time. Besides, the TGI in the test on SF-295 CNS, with SNB-75 CNS, in the test with TK-10 renal and in the test with UACC-62 melanoma was > 100 µM in each case.
For `Nc1c2c(nc3ccccc13)-c1ccccc1NCCC2`, the TGI with EKVX NSCLC was > 100 µM; with HOP-62 NSCLC, 54.2 µM; in the test on MDA-N, 39 µM; in the test with NCI-H226 lung, > 100 µM; in the test with RPMI-8226 leukemia it was 58.5 µM; with SF-268 CNS, > 100 µM. The TGI with SF-295 CNS is 50.8 µM; in the test on SNB-75 CNS, > 100 µM; in the test on TK-10 renal it was 49.6 µM; in the test with UACC-62 melanoma, 41.2 µM.
As to `CCOC(=O)C(O)(C(=O)OCC)c1cc(C(C)(C)C)c(O)c(C(C)(C)C)c1`, the TGI is > 100 µM in the test with EKVX NSCLC; > 100 µM in the test with HOP-62 NSCLC; > 100 µM with MDA-N; > 100 µM in the test on NCI-H226 lung; 91.3 µM in the test on RPMI-8226 leukemia; > 100 µM with SF-268 CNS. Also, the TGI in the test with SF-295 CNS is 52.5 µM; in the test with SNB-75 CNS, > 100 µM; with TK-10 renal, > 100 µM; in the test on UACC-62 melanoma it was > 100 µM.
Consider `O=[N+]([O-])/C(C(Cl)=C(Cl)Cl)=C(\N1CCCCC1)n1nnc2ccccc21`, for which the TGI in the test on EKVX NSCLC turned out to be 26.4 µM; with HOP-62 NSCLC, 48.8 µM; in the test on MDA-N, 44.1 µM; with NCI-H226 lung it was 42.6 µM; with RPMI-8226 leukemia, 38.6 µM; in the test on SF-268 CNS, 45 µM. Besides, the TGI is 33.3 µM in the test on SF-295 CNS, > 65.5 µM in the test with SNB-75 CNS, 35.5 µM with TK-10 renal and 36.7 µM in the test on UACC-62 melanoma.
Consider `CC1(C)OC[C@@H](O)[C@H](Br)CO1`, for which the TGI in the test with EKVX NSCLC, in the test with HOP-62 NSCLC, in the test with MDA-N, in the test on NCI-H226 lung, in the test on RPMI-8226 leukemia and in the test on SF-268 CNS was > 100 µM each time. Further, the TGI in the test with SF-295 CNS, with SNB-75 CNS, in the test on TK-10 renal and in the test on UACC-62 melanoma was > 100 µM each time.
For `CCOC(=O)C(C)c1nc2ccc(C(F)(F)F)cc2[nH]c1=O` (stereo not drawn), the TGI with EKVX NSCLC, in the test with HOP-62 NSCLC, in the test with MDA-N, in the test on NCI-H226 lung, with RPMI-8226 leukemia and in the test with SF-268 CNS was > 100 µM throughout. For the same molecule, the TGI in the test on SF-295 CNS, in the test with SNB-75 CNS, with TK-10 renal and in the test on UACC-62 melanoma was > 100 µM in each case.
Regarding `CC(=O)C(=[N+]=[N-])C(=O)N(C)CCC#N`, the TGI with EKVX NSCLC, in the test with HOP-62 NSCLC, with MDA-N, with NCI-H226 lung, in the test with RPMI-8226 leukemia and in the test with SF-268 CNS was > 10 µM throughout. The TGI with SF-295 CNS is > 10 µM; with SNB-75 CNS it was 3.39 µM; in the test with TK-10 renal, > 10 µM; with UACC-62 melanoma, > 10 µM.
As to `C=CCOc1ccccc1C1(O)c2ccccc2C2=NCCCN21` (stereo not drawn), the TGI in the test with EKVX NSCLC is > 100 µM; with HOP-62 NSCLC, 54.1 µM; in the test on MDA-N it was > 100 µM; in the test on NCI-H226 lung, 76.4 µM; in the test with RPMI-8226 leukemia it was > 100 µM; in the test on SF-268 CNS it was > 100 µM. Also, the TGI in the test on SF-295 CNS was 71.6 µM; with SNB-75 CNS it was > 100 µM; in the test with TK-10 renal it was > 100 µM; with UACC-62 melanoma, > 100 µM.
`CC1CN=C(c2cccc(-c3nc(-c4cccc(C5=NCC(C)N5)c4)nc(N(C)C)n3)c2)N1` (stereo not drawn): the TGI with EKVX NSCLC worked out at 8.64 µM; with HOP-62 NSCLC it was 5.9 µM; with MDA-N, 4.08 µM; in the test on NCI-H226 lung, 6.47 µM; with RPMI-8226 leukemia, 6.87 µM; in the test on SF-268 CNS, 10.7 µM. Moreover, the TGI in the test on SF-295 CNS stood at 14.3 µM; in the test on SNB-75 CNS it was 5.13 µM; with TK-10 renal, 9.76 µM; in the test with UACC-62 melanoma, 3.83 µM.
With `CCOC(=O)c1cc(C2CCN(c3ccccc3)C2=O)c(C(=O)/C=C(/C)N)[nH]1` (stereo not drawn), the TGI in the test with EKVX NSCLC is > 100 µM; in the test with HOP-62 NSCLC it was 46 µM; in the test with MDA-N, > 100 µM; in the test on NCI-H226 lung, 80.4 µM; in the test with RPMI-8226 leukemia it was > 100 µM; in the test with SF-268 CNS, > 100 µM. For the same molecule, the TGI with SF-295 CNS was 46.7 µM; in the test with SNB-75 CNS, 28.2 µM; in the test with TK-10 renal it was > 100 µM; in the test on UACC-62 melanoma it was 40.1 µM.
For `COc1cc(NC=C2C(=O)OC(C)(C)OC2=O)c(OC)c(C)c1OC`, the TGI in the test on EKVX NSCLC, in the test with HOP-62 NSCLC, in the test with MDA-N, in the test on NCI-H226 lung, in the test with RPMI-8226 leukemia and in the test with SF-268 CNS was > 100 µM throughout. Further, the TGI in the test with SF-295 CNS, with SNB-75 CNS, in the test on TK-10 renal and in the test on UACC-62 melanoma was > 100 µM in each case.
For the molecule `CC(C)/C(=N\[N+](C)(C)C)c1ccccc1`, the TGI in the test on EKVX NSCLC, in the test on HOP-62 NSCLC, with MDA-N, with NCI-H226 lung, with RPMI-8226 leukemia and in the test on SF-268 CNS was > 100 µM throughout. Besides, the TGI in the test with SF-295 CNS, in the test with SNB-75 CNS, with TK-10 renal and in the test with UACC-62 melanoma was > 100 µM in each case.
In the case of `COC(=O)/C=C\C(C#N)(C#N)N=Cc1sccc1C`, the TGI in the test with EKVX NSCLC is 15 µM; with HOP-62 NSCLC, 27.8 µM; in the test with MDA-N, 15.1 µM; in the test on NCI-H226 lung, 13.2 µM; with RPMI-8226 leukemia, > 24.6 µM; with SF-268 CNS it was 26.1 µM. The TGI in the test with SF-295 CNS turned out to be 35.1 µM; in the test with SNB-75 CNS it was 28.4 µM; with TK-10 renal, 4.12 µM; in the test with UACC-62 melanoma it was 17 µM.
In the case of `CC/C=C/C[C@H](O)[C@H]1C[C@H]2O[C@H](CC(=O)OC)C[C@H]2O1`, the TGI in the test with EKVX NSCLC, in the test on HOP-62 NSCLC, in the test with MDA-N, in the test on NCI-H226 lung, in the test on RPMI-8226 leukemia and in the test with SF-268 CNS was > 100 µM throughout. Also, the TGI in the test on SF-295 CNS, in the test with SNB-75 CNS and with UACC-62 melanoma was > 100 µM each time.
Take `CC1(C)CC(=O)c2c(nc3c(ccc4ccccc43)c2-c2ccc(NC(=O)CCCCC(=O)Nc3ccc(-c4c5c(nc6c4ccc4ccccc46)CC(C)(C)CC5=O)cc3)cc2)C1`: the TGI is 67.5 µM with EKVX NSCLC; > 100 µM in the test with HOP-62 NSCLC; 68.3 µM with MDA-N; 54.9 µM in the test with NCI-H226 lung; 71.4 µM in the test with RPMI-8226 leukemia; > 100 µM in the test with SF-268 CNS. Besides, the results for the TGI in the test on SF-295 CNS, in the test on SNB-75 CNS and in the test with TK-10 renal were 41.6 µM, 53.1 µM and > 100 µM, respectively.
